This is an account of results in patent US20100311668A1, “PERSONAL CARE AND COSMETIC COMPOSITION CONTAINING TETRAPEPTIDES WITH THE MOTIFS GX1X2G, PX1X2P, OR PX1X2K” (EVONIK GOLDSCHMIDT GMBH, priority 2007, published 2010).

Test [1] deals with collagen 1 alpha-2 (COL1A2). As to the kind of experiment: Collagen 1 alpha-2 (COL1A2) mRNA expression in human dermal fibroblasts, quantitative PCR. The test is classed as cell-based. The conditions noted are these: HDFs, 1 μg/ml peptide, 24 hours, vs PBS control, normalized to 18S rRNA.
Protocol: FIG. 4: Collagen 1 alpha-2 (COL1A2) expression in human dermal fibroblasts (HDFs). […] Controls received PBS. Cells were harvested after 24 hours incubation and RNA was isolated. […] 18s rRNA served as house keeping gene for normalization. Given are means of three independent experiments.
Aliquots of total RNA (100 ng) were applied for cDNA-Synthesis using Superscript™ III First-Strand synthesis system for the reverse transcription step with random healers (Invitrogen, Karlsruhe, Germany). […] Three independent experiments were performed with 3 determinations each and the mean value of these was calculated. […] Each sample was analyzed in double employing the universal protocol over 46 cycles. […]
The test system of test [2] is human dermal fibroblasts (HDFs). In words: Collagen production in human dermal fibroblasts, Sircol Soluble Collagen Assay of culture supernatants. The test is classed as cell-based. The following applies: 1 μg/ml peptide, 24 hours, vs PBS control. How it is done: FIG. 5: Collagen production in human dermal fibroblasts (HDFs). […] Controls received PBS. Cell culture supernatands were collected after 24 hours incubation. Amounts of collagen were determined as described above. Given are means of three independent experiments.
Therefore, HDFs prepared from neonatal foreskin were cultured in EMEM (Life Technologies GmbH, Eggenstein, Germany) supplemented with 5% fetal calf serum (Greiner, Frickenhausen, Germany), 0.1% 1-glutamine, 2.5% NaHCO3, and 1% streptomycin/amphotericin B in a humidified atmosphere containing 5% CO2 for 4 days until they reached confluence as described by Schieke et al. J Invest Dermatol 2002, 119: 1323-9. For all studies, only early passage (<12) fibroblasts have been used to avoid changes in their original phenotype during subculture. Cells were kept in 6 well plates for culture. Peptides dissolved in PBS were added at concentrations of 1 μg/ml and incubated for 24 hours.
The amount of collagen in cell culture supernatants was determined utilizing a Sircol™ Soluble Collagen Assay (# S1000) from Biocolor Ltd. (Newtownabbay, Northern Ireland, UK) following the guidelines of the manufacturer.

Another test has as its system fibronectin 1 (FN1). In words: Fibronectin 1 (FN1) mRNA expression in human dermal fibroblasts, quantitative PCR. The conditions noted are these: HDFs, 1 μg/ml peptide, 24 hours, vs PBS control, normalized to 18S rRNA. The test is classed as cell-based. As to the method:
FIG. 1: Fibronectin 1 (FN1) expression in human dermal fibroblasts (HDFs). […] Controls received PBS. Cells were harvested after 24 hours incubation and RNA was isolated. Expression of FN1 was determined by quantitative PCR. 18s rRNA served as house keeping gene for normalization. Given are means of three independent experiments.
(§1) Therefore, HDFs prepared from neonatal foreskin were cultured in EMEM (Life Technologies GmbH, Eggenstein, Germany) supplemented with 5% fetal calf serum (Greiner, Frickenhausen, Germany), 0.1% 1-glutamine, 2.5% NaHCO3, and 1% streptomycin/amphotericin B in a humidified atmosphere containing 5% CO2 for 4 days until they reached confluence as described by Schieke et al. J Invest Dermatol 2002, 119: 1323-9. […]
(§2) For isolation of total RNA RNeasy Total RNA Kits (Qiagen, Hilden; Germany) were used according to the manufacturer's guidelines. The RNA concentration was determined via photometric measurement at 260/280 (Biophotometer, Eppendorf, Hamburg, Germany).
(§3) Aliquots of total RNA (100 ng) were applied for cDNA-Synthesis using Superscript™ III First-Strand synthesis system for the reverse transcription step with random […] (Invitrogen, Karlsruhe, Germany). […] Three independent experiments were performed with 3 determinations each and the mean value of these was calculated. […] Each sample was analyzed in double employing the universal protocol over 46 cycles. […]

Test [3] deals with proinflammatory cytokines. In words: Inhibition of UV-induced expression of proinflammatory cytokines.
The test system of test [4] is hyaluronic acid synthetase 1 (HAS1). As to the kind of experiment: Hyaluronic acid synthetase 1 (HAS1) mRNA expression in human dermal fibroblasts, quantitative PCR. The test is classed as cell-based. The following applies: HDFs, 1 μg/ml peptide, 24 hours, vs PBS control, normalized to 18S rRNA. As to the method:
FIG. 2: Hyaluronic acid synthetase 1 (HAS1) expression in human dermal fibroblasts (HDFs). […] Controls received PBS. Cells were harvested after 24 hours incubation and RNA was isolated. Expression of […] was determined by quantitative PCR. 18s rRNA served as house keeping gene for normalization. Given are means of three independent experiments.
as §1, §2, §3

The test system of a further test is collagen. The following applies: prior-art product background; cited from earlier work.
The subject of test [5] is collagen 1 alpha-1 (COL1A1). In words: Collagen 1 alpha-1 (COL1A1) mRNA expression in human dermal fibroblasts, quantitative PCR. The following applies: HDFs, 1 μg/ml peptide, 24 hours, vs PBS control, normalized to 18S rRNA. The test is classed as cell-based. How it is done: FIG. 3: Collagen 1 alpha-1 (COL1A1) expression in human dermal fibroblasts (HDFs). […] Controls received PBS. Cells were harvested after 24 hours incubation and RNA was isolated. Expression of […] was determined by quantitative PCR. 18s rRNA served as house keeping gene for normalization. Given are means of three independent experiments.
as §1, §2, §3

Ends that are not written are not given here.

As to “PGPP (also: N-acyl group, acyl not given here) [SEQ ID NO:4, tetrapeptide PGPP]”, the COL1A2 expression entry in test [1] is listed as “triggering effects”. In test [2], the “collagen production (collagen protein in cell culture supernatants)” value is “markedly increased production of collagen”. Further, in the test on fibronectin 1 (FN1), the FN1 expression entry was “strongest effects”.
Take “GPPG (also: N-acyl group, acyl not given here) [SEQ ID NO:2, tetrapeptide GPPG]”: the FN1 expression entry in the test with fibronectin 1 (FN1) is on record as “strongest effects”.
Take “PKEK (also: N-acyl group, acyl not given here) [tetrapeptide PKEK]”: the “inhibition of UV-induced expression of proinflammatory cytokines” value in test [3] is listed as “inhibition of UV-induced expression of proinflammatory cytokines”.
“GEPG (also: N-acyl group, acyl not given here) [SEQ ID NO:1, tetrapeptide GEPG]”: in test [1], the COL1A2 expression entry is “triggering effects”. Further, the HAS1 expression entry in test [4] is given as “strongest effects”.
As to Val-Trp, the collagen stimulating activity entry in the test with collagen is given as “no significant collagen stimulating activity”.
With “GEKG (also: N-acyl group, acyl not given here) [SEQ ID NO:3, tetrapeptide GEKG]”, in test [4], the HAS1 expression result was “strongest effects”. For the same substance, in test [2], the “collagen production (collagen protein in cell culture supernatants)” value is given as “markedly increased production of collagen”.
GAGP [SEQ ID NO:11, tetrapeptide GAGP]: in test [5], the COL1A1 expression result is “Strongest effects”.
